From PMC7884382, “A Phase 1 study of RO6870810, a novel bromodomain and extra-terminal protein inhibitor, in patients with NUT carcinoma, other solid tumours, or diffuse large B-cell lymphoma” (British Journal of Cancer, 2020)
Like-named read-outs stand apart in the source and are kept apart here.

Experimental: Patients were considered evaluable for safety if they received ≥1 injection of the study drug. All adverse events (AEs) were graded per the National Cancer Institute’s Common Terminology Criteria for Adverse Events (CTCAE) version 4.03.
Grade ≤3 drug-related fever or skin or SC tissue disorders localised to the site of injection—including grade ≤3 rash, pruritus, skin induration or pain—were not considered DLTs.
Data for patients with NC and lymphoma were evaluated but not included in the MTD determination.

Cc1sc2c(c1C)C(c1ccc(Cl)cc1)=N[C@@H](CC(=O)NCCCN1CCN(C)CC1)c1nnc(C)n1-2 [RO6870810]
Death due to AE (DLBCL (n = 19)): 3 (15.8) n (%) | Death due to treatment-related AE (DLBCL (n = 19)): 0 n (%) | Death due to AE (NC (n = 8)): 3 (37.5) n (%) | Death due to treatment-related AE (NC (n = 8)): 0 n (%) | Death due to AE (Solid tumours (n = 47)): 2 (4.3) n (%) | Death due to treatment-related AE (Solid tumours (n = 47)): 0 n (%) | Treatment-related grade 5 AEs (all patients): No treatment-related grade 5 AEs occurred | Grade 3/4 treatment-related AE: anaemia (human, in vivo): 8% | Grade 3/4 treatment-related AE: fatigue (human, in vivo): 10% | Grade 3/4 treatment-related AE: hyperbilirubinemia (human, in vivo): 5% | Grade 3/4 treatment-related AE: thrombocytopenia (human, in vivo): 10% | Incidence of treatment-related thrombocytopenia (human, in vivo): 12% | Treatment-emergent AE: Abdominal pain (human, in vivo): 13 (17.6) n (%) | Treatment-emergent AE: Anemia (human, in vivo): 20 (27.0) n (%) | Treatment-emergent AE: Back pain (human, in vivo): 13 (17.6) n (%) | Treatment-emergent AE: Blood bilirubin increased (human, in vivo): 14 (18.9) n (%) | Treatment-emergent AE: Constipation (human, in vivo): 14 (18.9) n (%) | Treatment-emergent AE: Cough (human, in vivo): 10 (13.5) n (%) | Treatment-emergent AE: Decreased appetite (human, in vivo): 38 (51.4) n (%) | Treatment-emergent AE: Dehydration (human, in vivo): 13 (17.6) n (%) | Treatment-emergent AE: Diarrhea (human, in vivo): 26 (35.1) n (%) | Treatment-emergent AE: Dizziness (human, in vivo): 10 (13.5) n (%) | Treatment-emergent AE: Dry mouth (human, in vivo): 11 (14.9) n (%) | Treatment-emergent AE: Dysgeusia (human, in vivo): 20 (27.0) n (%) | Treatment-emergent AE: Dyspnea (human, in vivo): 12 (16.2) n (%) | Treatment-emergent AE: Fatigue (human, in vivo): 43 (58.1) n (%) | Treatment-emergent AE: Headache (human, in vivo): 12 (16.2) n (%) | Treatment-emergent AE: Hypomagnesaemia (human, in vivo): 10 (13.5) n (%) | Treatment-emergent AE: Injection site erythema (human, in vivo): 26 (35.1) n (%) | Treatment-emergent AE: Injection site induration (human, in vivo): 21 (28.4) n (%) | Treatment-emergent AE: Injection site pain (human, in vivo): 25 (33.8) n (%) | Treatment-emergent AE: Injection site pruritus (human, in vivo): 15 (20.3) n (%) | Treatment-emergent AE: Injection site reaction (human, in vivo): 10 (13.5) n (%) | Treatment-emergent AE: Injection site swelling (human, in vivo): 10 (13.5) n (%) | Treatment-emergent AE: Malaise (human, in vivo): 16 (21.6) n (%) | Treatment-emergent AE: Myalgia (human, in vivo): 12 (16.2) n (%) | Treatment-emergent AE: Nausea (human, in vivo): 32 (43.2) n (%) | Treatment-emergent AE: Thrombocytopenia (human, in vivo): 10 (13.5) n (%) | Treatment-emergent AE: Vomiting (human, in vivo): 28 (37.8) n (%) | Treatment-emergent AE: Weight decreased (human, in vivo): 9 (12.2) n (%) | Treatment-related AE of any grade: decreased appetite (human, in vivo): 35% | Treatment-related AE of any grade: fatigue (human, in vivo): 42% | Treatment-related AE of any grade: injection-site erythema (human, in vivo): 35% | Treatment-related AE of any grade: injection-site pain (human, in vivo): 32% | Treatment-related AE of any grade: nausea (human, in vivo): 31% | Treatment-related AE: Cardiomyopathy (human, in vivo): 1 (1.4) n (%) | Treatment-related AE: Cholestasis (human, in vivo): 1 (1.4) n (%) | Treatment-related AE: Dyspnoea (human, in vivo): 1 (1.4) n (%) | Treatment-related AE: Hepatic enzyme increased (human, in vivo): 1 (1.4) n (%) | Treatment-related AE: Neutropenia (human, in vivo): 1 (1.4) n (%) | Treatment-related AE: Peritoneal haemorrhage (human, in vivo): 1 (1.4) n (%) | Treatment-emergent AE: Abdominal pain (human, in vivo, 0.03 mg/kg): 1 (33.3) n (%) | Treatment-emergent AE: Anemia (human, in vivo, 0.03 mg/kg): 0 n (%) | Treatment-emergent AE: Back pain (human, in vivo, 0.03 mg/kg): 0 n (%) | Treatment-emergent AE: Blood bilirubin increased (human, in vivo, 0.03 mg/kg): 0 n (%) | Treatment-emergent AE: Constipation (human, in vivo, 0.03 mg/kg): 0 n (%) | Treatment-emergent AE: Cough (human, in vivo, 0.03 mg/kg): 0 n (%) | Treatment-emergent AE: Decreased appetite (human, in vivo, 0.03 mg/kg): 0 n (%) | Treatment-emergent AE: Dehydration (human, in vivo, 0.03 mg/kg): 0 n (%) | Treatment-emergent AE: Diarrhea (human, in vivo, 0.03 mg/kg): 1 (33.3) n (%) | Treatment-emergent AE: Dizziness (human, in vivo, 0.03 mg/kg): 0 n (%) | Treatment-emergent AE: Dry mouth (human, in vivo, 0.03 mg/kg): 0 n (%) | Treatment-emergent AE: Dysgeusia (human, in vivo, 0.03 mg/kg): 0 n (%) | Treatment-emergent AE: Dyspnea (human, in vivo, 0.03 mg/kg): 0 n (%) | Treatment-emergent AE: Fatigue (human, in vivo, 0.03 mg/kg): 0 n (%) | Treatment-emergent AE: Headache (human, in vivo, 0.03 mg/kg): 0 n (%) | Treatment-emergent AE: Hypomagnesaemia (human, in vivo, 0.03 mg/kg): 1 (33.3) n (%) | Treatment-emergent AE: Injection site erythema (human, in vivo, 0.03 mg/kg): 2 (66.7) n (%) | Treatment-emergent AE: Injection site induration (human, in vivo, 0.03 mg/kg): 1 (33.3) n (%) | Treatment-emergent AE: Injection site pain (human, in vivo, 0.03 mg/kg): 0 n (%) | Treatment-emergent AE: Injection site pruritus (human, in vivo, 0.03 mg/kg): 3 (100) n (%) | Treatment-emergent AE: Injection site reaction (human, in vivo, 0.03 mg/kg): 0 n (%) | Treatment-emergent AE: Injection site swelling (human, in vivo, 0.03 mg/kg): 1 (33.3) n (%) | Treatment-emergent AE: Malaise (human, in vivo, 0.03 mg/kg): 1 (33.3) n (%) | Treatment-emergent AE: Myalgia (human, in vivo, 0.03 mg/kg): 1 (33.3) n (%) | Treatment-emergent AE: Nausea (human, in vivo, 0.03 mg/kg): 1 (33.3) n (%) | Treatment-emergent AE: Thrombocytopenia (human, in vivo, 0.03 mg/kg): 0 n (%) | Treatment-emergent AE: Vomiting (human, in vivo, 0.03 mg/kg): 0 n (%) | Treatment-emergent AE: Abdominal pain (human, in vivo, 0.06 mg/kg): 1 (33.3) n (%) | Treatment-emergent AE: Anemia (human, in vivo, 0.06 mg/kg): 0 n (%) | Treatment-emergent AE: Back pain (human, in vivo, 0.06 mg/kg): 0 n (%) | Treatment-emergent AE: Blood bilirubin increased (human, in vivo, 0.06 mg/kg): 0 n (%) | Treatment-emergent AE: Constipation (human, in vivo, 0.06 mg/kg): 1 (33.3%) n (%) | Treatment-emergent AE: Cough (human, in vivo, 0.06 mg/kg): 0 n (%) | Treatment-emergent AE: Decreased appetite (human, in vivo, 0.06 mg/kg): 0 n (%) | Treatment-emergent AE: Dehydration (human, in vivo, 0.06 mg/kg): 0 n (%) | Treatment-emergent AE: Diarrhea (human, in vivo, 0.06 mg/kg): 0 n (%) | Treatment-emergent AE: Dizziness (human, in vivo, 0.06 mg/kg): 0 n (%) | Treatment-emergent AE: Dry mouth (human, in vivo, 0.06 mg/kg): 0 n (%) | Treatment-emergent AE: Dysgeusia (human, in vivo, 0.06 mg/kg): 0 n (%) | Treatment-emergent AE: Dyspnea (human, in vivo, 0.06 mg/kg): 0 n (%) | Treatment-emergent AE: Fatigue (human, in vivo, 0.06 mg/kg): 2 (66.7) n (%) | Treatment-emergent AE: Headache (human, in vivo, 0.06 mg/kg): 0 n (%) | Treatment-emergent AE: Hypomagnesaemia (human, in vivo, 0.06 mg/kg): 0 n (%) | Treatment-emergent AE: Injection site erythema (human, in vivo, 0.06 mg/kg): 1 (33.3) n (%)
